Data reported in the supplement of paper PMC9938120.

Key:
Experiment in all cases: drug sensitivity score (DSS3, normalised partial AUC of % inhibition dose-response) (DSS (score)); higher = more sensitive (stronger inhibition of viability); extreme values may be limits of the assay
FMOC02_1 = patient-derived low-grade serous ovarian cancer cells; conditions: 72 h; library: FO5A; assay format: 2D, 384-well, CellTiter-Glo
Method in brief: (§1)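 Early-passage (under 10) patient-derived ovarian cancer cells were dispensed onto 384-well flat clear-bottom plates pre-plated with compounds at five concentrations spanning a 10,000-fold range, then incubated 72 h at 37 °C, 5% CO2. Viability was read with CellTiter-Glo, and the data were processed in Breeze. The drug sensitivity score is a partial area under the percent-inhibition dose-response curve divided by the log of the upper asymptote, with higher values meaning greater sensitivity.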

FMOC28 = patient-derived low-grade serous ovarian cancer cells; conditions: 72 h; library: FO5A; assay format: 2D, 384-well, CellTiter-Glo
Method in brief: as §1

FMOC06 = patient-derived mucinous ovarian cancer cells; conditions: 72 h; library: FO5A; assay format: 2D, 384-well, CellTiter-Glo
Method in brief: as §1

FMOC09 = patient-derived high-grade serous ovarian cancer cells; conditions: 72 h; library: FO5A; assay format: 2D, 384-well, CellTiter-Glo
Method in brief: as §1

FMOC24 = patient-derived high-grade serous ovarian cancer cells; conditions: 72 h; library: FO5A; assay format: 2D, 384-well, CellTiter-Glo
Method in brief: as §1

FMOC11 = patient-derived high-grade serous ovarian cancer cells; conditions: 72 h; library: FO5A; assay format: 2D, 384-well, CellTiter-Glo
Method in brief: as §1

FMOC22 = patient-derived mucinous ovarian cancer cells; conditions: 72 h; library: FO5A; assay format: 2D, 384-well, CellTiter-Glo
Method in brief: as §1

FMOC02_2 = patient-derived low-grade serous ovarian cancer cells; conditions: 72 h; library: FO5A; assay format: 2D, 384-well, CellTiter-Glo
Method in brief: as §1

FMOC02_3 = patient-derived low-grade serous ovarian cancer cells; conditions: 72 h; library: FO5A; assay format: 2D, 384-well, CellTiter-Glo
Method in brief: as §1

FMOC27 = patient-derived low-grade serous ovarian cancer cells; conditions: 72 h; library: FO5A; assay format: 2D, 384-well, CellTiter-Glo
Method in brief: as §1

FMOC03 = patient-derived mucinous ovarian cancer cells; conditions: 72 h; library: FO5A; assay format: 2D, 384-well, CellTiter-Glo
Method in brief: as §1

FMOC17 = patient-derived low-grade serous ovarian cancer cells; conditions: 72 h; library: FO5A; assay format: 2D, 384-well, CellTiter-Glo
Method in brief: as §1

FMOC04 = patient-derived high-grade serous ovarian cancer cells; conditions: 72 h; library: FO5A; assay format: 2D, 384-well, CellTiter-Glo
Method in brief: as §1

FMOC14 = patient-derived high-grade serous ovarian cancer cells; conditions: 72 h; library: FO5A; assay format: 2D, 384-well, CellTiter-Glo
Method in brief: as §1

FMOC25_2 = patient-derived low-grade serous ovarian cancer cells; conditions: 72 h; library: FO5A; assay format: 2D, 384-well, CellTiter-Glo
Method in brief: as §1

FMOC25_1 = patient-derived low-grade serous ovarian cancer cells; conditions: 72 h; library: FO4B; assay format: 2D, 384-well, CellTiter-Glo
Method in brief: as §1

Row | Structure (SMILES) | drug sensitivity score (FMOC02_1) | drug sensitivity score (FMOC28) | drug sensitivity score (FMOC06) | drug sensitivity score (FMOC09) | drug sensitivity score (FMOC24) | drug sensitivity score (FMOC11) | drug sensitivity score (FMOC22) | drug sensitivity score (FMOC02_2) | drug sensitivity score (FMOC02_3) | drug sensitivity score (FMOC27) | drug sensitivity score (FMOC03) | drug sensitivity score (FMOC17) | drug sensitivity score (FMOC04) | drug sensitivity score (FMOC14) | drug sensitivity score (FMOC25_2) | drug sensitivity score (FMOC25_1)
1 | CC[C@@H]1[C@H](F)C(=O)N[C@@H]1COc1nccc2cc(C(N)=O)c(OC)cc12 | 2.6 | 0 | 0 | 0 | 0 | 0 | 0 | 0.6 | 5.2 | 0.5 | 0 | 0 | 0 | 0 | 4 | –
2 | CNS(=O)(=O)Nc1nccc(Cc2c(C)c3ccc(Oc4ncccn4)cc3oc2=O)c1F | 0 | 4.5 | 0.4 | 0.7 | 0 | 0 | 0.7 | 0.8 | 3.7 | 0 | 0.4 | 0 | 0 | 0 | 5.2 | –
3 | CONC(=O)c1ccccc1Nc1cc(Nc2cc(C)nn2C(C)C)ncc1Cl | 0 | 0 | 0 | 1.4 | 0.2 | 0 | 0 | 1.6 | 1 | 0 | 0 | 0.3 | 0 | 0 | 1.7 | –
4 | C[C@H]1C[C@@H](n2c(Nc3ccc(OC(F)(F)F)cc3)nc3cc(CCC(=O)O)ccc32)CC(C)(C)C1 | 0 | 0 | 0 | 0 | 4.1 | 0.6 | 1.1 | 0 | 0.3 | 0 | 0 | 0 | 0 | 0 | 0 | –
5 | Cc1c(-c2c(-c3ccc(F)o3)sc3ncnc(O[C@H](Cc4ccccc4OCc4ccnn4CC(F)(F)F)C(=O)O)c23)ccc(OCCN2CCN(C)CC2)c1Cl | 0 | 0 | 0 | 0 | 8 | 0 | 0 | 0 | 2.8 | 0 | 0 | 0 | 0.05 | 0 | 0 | –
6 | Cn1cc(-c2ccc(F)c(C(F)(F)F)c2)nc1C1CCN(c2ncnc3[nH]ncc23)CC1 | 3.1 | 3.8 | 0 | 0 | 0 | 0 | 0 | 3.9 | 5.4 | 0.1 | 0 | 0.6 | 0 | 0 | 5.6 | –
7 | O=C(NCc1ccncc1)C12CC3CC(C1)CC(c1ccc(Cl)cc1)(C3)C2 | 2.6 | 4.8 | 5.6 | 4.2 | 4.7 | 5.8 | 5.2 | 3.2 | 5.3 | 4.1 | 4.5 | 3.1 | 2 | 1.6 | 3.1 | –
8 | O=C1Cc2cc(C(=O)NC3C[C@H]4CC[C@@H](C3)N4S(=O)(=O)CC3CCN(CCCC(F)(F)F)CC3)c(Cl)cc2N1 (stereo not given in full) | 0 | 0.2 | 2.3 | 0 | 0 | 0 | 0 | 0 | 0 | 0 | 0 | 0 | 0 | 0 | 0 | –
9 | COc1cc2c(cc1OCCCN1CCCC1)N=C(N)C21CCC1 [A-366] | 3.9 | 0.1 | 0 | 2.3 | 7.2 | 1.1 | 0 | 0.2 | 0 | 0 | 0.7 | 2.3 | 3.9 | 0.5 | 4.9 | –
10 | C[C@H](Nc1ncnc2[nH]cnc12)c1cc2ccc(F)cc2nc1-c1ccccn1 [AMG319] | 0 | 0 | 0 | 0 | 0.7 | 0 | 0 | 0.1 | 0 | 0 | 0 | 0.1 | 0 | 0 | 0 | –
11 | Cc1cc(Nc2cc(N3CCN(C)CC3)nc(Sc3ccc(NC(=O)C4CC4)cc3)n2)n[nH]1 [Tozasertib] | – | – | 3.5 | 4.7 | 0.65 | – | 2.9 | 5 | 5.7 | – | 2.2 | – | – | 0.6 | 3.6 | 2.6
12 | CC(=O)Nc1cccc(-n2c(=O)n(C3CC3)c(=O)c3c(Nc4ccc(I)cc4F)n(C)c(=O)c(C)c32)c1 [Trametinib] | – | – | 15.9 | 9.9 | 0 | – | 11.6 | 15.1 | 14 | – | 16.6 | – | – | 0.9 | 12 | 12.4
13 | CN[C@@H]1C[C@H]2O[C@@](C)([C@@H]1OC)n1c3ccccc3c3c4c(c5c6ccccc6n2c5c31)C(=O)N[C@H]4O [UCN-01] | – | – | 23.2 | 20.7 | 24.4 | – | 15.9 | 33.1 | 33.7 | – | 17.2 | – | – | 19.8 | 34.4 | 31
14 | CC(C)Nc1cc(-c2c[nH]c(C(=O)N[C@H](CO)c3cccc(Cl)c3)c2)c(Cl)cn1 [Ulixertinib] | – | – | 11.4 | 6.7 | 0.05 | – | 7.5 | 10.6 | 13.1 | – | 10 | – | – | 0.6 | 10.6 | 12.3
15 | Cn1ncc(Cl)c1-c1cc(C(=O)N[C@H](CN)Cc2ccc(F)c(F)c2)oc1Cl [Uprosertib] | – | – | 4.3 | 0 | 1.35 | – | 0.7 | 13.1 | 13.7 | – | 0 | – | – | 3.5 | 4.1 | 3.5
16 | CNC(=O)c1ccccc1Nc1cc(Nc2ccc(N3CCOCC3)cc2OC)ncc1C(F)(F)F [VS-4718] | – | – | 9.6 | 11.5 | 3.2 | – | 6 | 12 | 13.8 | – | 4.2 | – | – | 0.7 | 12.6 | 6.1
17 | CCCCC(=O)OCC(=O)[C@]1(O)Cc2c(O)c3c(c(O)c2[C@@H](O[C@H]2C[C@H](NC(=O)C(F)(F)F)[C@H](O)[C@H](C)O2)C1)C(=O)c1c(OC)cccc1C3=O [Valrubicin] | – | – | 6.5 | 7.1 | 7 | – | 7.8 | 6.8 | 9.2 | – | 5.3 | – | – | 5.1 | 9 | 9.1
18 | C[C@@H]1COC(Nc2ccc3ncnc(Nc4ccc(OCc5nccs5)c(Cl)c4)c3c2)=N1 [Varlitinib] | – | – | 0.3 | 6.5 | 0.5 | – | 0.1 | 12.5 | 6.3 | – | 9 | – | – | 0.5 | 5.1 | 8.3
19 | O=C(/C=C\n1cnc(-c2cc(C(F)(F)F)cc(C(F)(F)F)c2)n1)NNc1ccccn1 [Verdinexor] | – | – | 11.2 | 7.6 | 11.2 | – | 8.6 | 9.4 | 9.2 | – | 8.2 | – | – | 6 | 11.9 | 6.2
20 | CC[C@]1(O)C[C@@H]2CN(CCc3c([nH]c4ccccc34)[C@@](C(=O)OC)(c3cc4c(cc3OC)N(C)[C@H]3[C@@](O)(C(=O)OC)[C@H](OC(C)=O)[C@]5(CC)C=CCN6CC[C@]43[C@@H]65)C2)C1 [Vinblastine] | – | – | 2.4 | 8.3 | 0.45 | – | 6.8 | 3.7 | 17.2 | – | 7.5 | – | – | 0 | 15.9 | 10.9
21 | CC[C@]1(O)C[C@H]2CN(CCc3c([nH]c4ccccc34)[C@@](C(=O)OC)(c3cc4c(cc3OC)N(C=O)[C@H]3[C@@](O)(C(=O)OC)[C@H](OC(C)=O)[C@]5(CC)C=CCN6CC[C@]43[C@@H]65)C2)C1 [Vincristine] | – | – | 3.4 | 12.5 | 5.05 | – | 5.9 | 4.7 | 15.4 | – | 6.2 | – | – | 0.3 | 13 | 9.4
22 | CCC1=C[C@@H]2CN(C1)Cc1c([nH]c3ccccc13)[C@@](C(=O)OC)(c1cc3c(cc1OC)N(C)[C@H]1[C@@](O)(C(=O)OC)[C@H](OC(C)=O)[C@]4(CC)C=CCN5CC[C@]31[C@@H]54)C2 [Vinorelbine] | – | – | 17.1 | 17.9 | 6.6 | – | 16.3 | 14.8 | 23.1 | – | 17.9 | – | – | 2.4 | 17.8 | 17.7
23 | CC[C@@H]1C(=O)N(C)c2cnc(Nc3ccc(C(=O)N[C@H]4CC[C@H](N5CCN(CC6CC6)CC5)CC4)cc3OC)nc2N1C(C)C [Volasertib] | – | – | 1.2 | 5.1 | 2.9 | – | 3.9 | 6.1 | 7.6 | – | 3.5 | – | – | 0.4 | 8.5 | 3.2
24 | O=C(CCCCCCC(=O)Nc1ccccc1)NO [Vorinostat] | – | – | 7.4 | 3.1 | 10.1 | – | 4.6 | 9.8 | 7.7 | – | 5.5 | – | – | 6.8 | 8.5 | 5.5
25 | Oc1nc(-c2ccc(C(F)(F)F)cc2)nc2c1CSCC2 [XAV-939] | – | – | 0.5 | 0 | 3.55 | – | 0 | 8.5 | 6 | – | 1.7 | – | – | 2.1 | 9.9 | 6.9
26 | FC(F)c1nc2ccccc2n1-c1nc(N2CCOCC2)nc(N2CCOCC2)n1 [ZSTK474] | – | – | 12.5 | 11.8 | 4.65 | – | 5.6 | 16.9 | 18.4 | – | 10.6 | – | – | 9.8 | 16.8 | 15.6
